Biological target: human IDO1 (Homo sapiens, UniProt P14902)
Test: Assessment of human IDO-1 inhibitory activity in Hela cells (Interferon-gamma stimulated HeLa cells, Ehrlich reagent, absorbance 490 nm)
Type: cell-based
Set-up: endogenous in cells; host or cells: HeLa cells stimulated with interferon-gamma
Conditions: Hela Human IDO-1 cellular assay
Procedure, shortened: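 IDO activity induced by 18 h IFN-γ (human 10 ng/ml or murine 5 ng/ml, final) after 1 h compound pre-treatment of HeLa cells at 37 °C. Supernatant kynurenine detected via Ehrlich reagent absorbance at 490 nm following 3% TCA at 50 °C; IC50 set against no-IFN-γ and untreated-stimulated controls.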

human IDO1, sequence (P14902 whole entry): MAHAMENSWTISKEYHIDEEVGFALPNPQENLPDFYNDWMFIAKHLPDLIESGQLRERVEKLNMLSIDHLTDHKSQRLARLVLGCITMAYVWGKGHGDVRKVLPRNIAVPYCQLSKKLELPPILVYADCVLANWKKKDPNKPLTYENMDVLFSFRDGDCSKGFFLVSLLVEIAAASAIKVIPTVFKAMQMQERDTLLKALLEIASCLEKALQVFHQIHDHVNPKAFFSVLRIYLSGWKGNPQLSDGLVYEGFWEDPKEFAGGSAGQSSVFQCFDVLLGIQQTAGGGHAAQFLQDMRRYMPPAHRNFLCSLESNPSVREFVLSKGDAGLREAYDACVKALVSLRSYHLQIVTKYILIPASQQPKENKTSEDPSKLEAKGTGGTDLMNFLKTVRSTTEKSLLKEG

SMILES | IC50
CCN(c1ccc(C(C)CC(=O)O)cc1Nc1cnc(OC)nc1)C1CCOCC1 (single isomer, unassigned) [Example 620, 3-(4-(ethyl(tetrahydro-2H-pyran-4-yl)amino)-3-((2-methoxypyrimidin-5-yl)amino)phenyl)butanoic acid] | < 50 nM
CCOc1ncc(Nc2cc(C(CC)CC(C)(C)O)ccc2N2CCC(c3ccccc3)CC2)cn1 (single isomer, unassigned) [Example 1349, 4-(3-((2-Ethoxypyrimidin-5-yl)amino)-4-(4-phenylpiperidin-1-yl)phenyl)-2-methylhexan-2-ol] | > 50 nM
CCN(c1ccc([C@H](CC(=O)O)C(F)(F)F)cc1NC(=O)Nc1ccc(C)cc1)C1CCOCC1 (single isomer, unassigned) [Example 1269] | < 50 nM
CCOc1ncc(Nc2cc(C(CC)CC(=O)O)ccc2N2CCNCC2)cn1 (single isomer, unassigned) [Example 672, 3-(3-((2-Ethoxypyrimidin-5-yl)amino)-4-(piperazin-1-yl)phenyl)pentanoic acid] | > 50 nM
CCN(c1ccc(C(C)CC(=O)O)cc1Nc1cnc(OC(C)C)nc1)C1CCOCC1 (single isomer, unassigned) [Example 622, 3-(4-(ethyl(tetrahydro-2H-pyran-4-yl)amino)-3-((2-isopropoxypyrimidin-5-yl)amino)phenyl)butanoic acid] | > 50 nM
CCc1ccc(Nc2cc(C(CC)CC(=O)O)ccc2N2CCOC[C@H]2C(C)C)cc1 (single isomer, unassigned) [Example 890] | < 50 nM
C[C@@H]1CN(c2ccc(C(CC(=O)O)C3CC3)cc2Nc2ccc(C#N)cc2)C[C@H](C)O1 (single isomer, unassigned) [Example 243] | < 50 nM
CCOc1ncc(Nc2cc([C@H](CC)CC(=O)Nc3ncco3)ccc2N(CC)C2CCOCC2)cn1 [Example 1346, (R)-3-(3-((2-Ethoxypyrimidin-5-yl)amino)-4-(ethyl(tetrahydro-2H-pyran-4-yl)amino)phenyl)-N-(oxazol-2-yl)pentanamide] | < 50 nM
CCN(c1ccc([C@@H](COC)CC(=O)O)cc1Nc1ncc(F)cc1F)C1CCOCC1 (single isomer, unassigned) [Example 358] | < 50 nM
CCCN(c1ccc([C@H](CC)CC(=O)O)cc1NC(=O)Nc1ccc(C#N)cc1)C1CCOCC1 (single isomer, unassigned) [Example 556] | < 50 nM
CCCN(c1ccc([C@H](COC)CC(=O)O)cc1Nc1ccc(OC)nc1)C1CCOCC1 (single isomer, unassigned) [Example 575] | < 50 nM
CCOc1ncc(Nc2cc([C@H](COC)CC(=O)O)ccc2N2CCOCC2CC)cn1 (single isomer, unassigned) [Example 1291] | > 50 nM
CCN(c1ccc([C@@H](CC(=O)O)C(F)(F)F)cc1NC(=O)Nc1ccc(C)cc1)C1CCOCC1 (single isomer, unassigned) [Example 1272] | < 50 nM
COCC(CC(=O)O)c1ccc(N2CCOC(C)C2)c(NC(=O)Nc2ccc(Cl)cc2F)c1 (single isomer, unassigned) [Example 1314 D1, 3-(3-(3-(4-Chloro-2-fluorophenyl)ureido)-4-(2-methylmorpholino)phenyl)-4-methoxybutanoic acid] | > 50 nM
CCN(c1ccc(C(CC(=O)O)C2CC2)cc1Nc1ccc(OC)nc1)C1CCS(=O)(=O)CC1 (single isomer, unassigned) [Example 342, 3-cyclopropyl-3-(4-((1,1-dioxidotetrahydro-2H-thiopyran-4-yl)(ethyl)amino)-3-((6-methoxypyridin-3-yl)amino)phenyl)propanoic acid] | < 50 nM
CCCN(c1ccc(C(C)(C)CC(=O)O)cc1NC(=O)Nc1ccc(C#N)cc1)C1CCS(=O)(=O)CC1 [Example 190, 3-(3-(3-(4-Cyanophenyl)ureido)-4-((1,1-dioxidotetrahydro-2H-thiopyran-4-yl)(propyl)amino)phenyl)-3-methylbutanoic acid] | > 50 nM
CCC(CC(=O)O)c1cc(Nc2ccc(C#N)cn2)c(N(CC)C2CCOCC2)cc1F (single isomer, unassigned) [Example 857, 3-(5-((5-cyanopyridin-2-yl)amino)-4-(ethyl(tetra-hydro-2H-pyran-4-yl)amino)-2-fluorophenyl) pentanoic acid] | < 50 nM
COCC(CC(=O)O)c1ccc(N(C)C2CCOCC2)c(NC(=O)Nc2ccc(Cl)cc2F)c1 (single isomer, unassigned) [Example 886, 3-(3-(3-(4-Chloro-2-fluorophenyl)ureido)-4-(methyl(tetrahydro-2H-pyran-4-yl)amino)phenyl)-4-methoxybutanoic acid] | > 50 nM
CCCN(c1ccc([C@@H](COC)CC(=O)O)cc1NC(=O)Nc1ccc(Cl)cc1F)C1CCOCC1 (single isomer, unassigned) [Example 566] | < 50 nM
CCCN(c1ccc([C@@H](COC)CC(=O)O)cc1NC(=O)Nc1ccc(C#N)cc1)C1CCOCC1 (single isomer, unassigned) [Example 567] | < 50 nM
CCOc1ncc(Nc2cc([C@@H](CC(=O)O)C(F)(F)F)ccc2N(CC)C2CCOCC2)cn1 [Example 600, (R)-3-(3-((2-Ethoxypyrimidin-5-yl)amino)-4-(ethyl(tetrahydro-2H-pyran-4-yl)amino)phenyl)-4,4,4-trifluorobutanoic acid] | < 5 nM
CCN(c1ccc(C(CC)(CC)CC(=O)O)cc1NC(=O)Nc1ccc(Cl)cc1F)C1CCOCC1 [Example 32, 3-(3-(3-(4-chloro-2-fluorophenyl)ureido)-4-(ethyl(tetrahydro-2H-pyran-4-yl)amino)phenyl)-3-ethylpentanoic acid] | < 5 nM
CCN(c1ccc([C@@H](COC)CC(=O)O)cc1Nc1ccc(C#N)c(OCC(F)F)c1)C1CCOCC1 (single isomer, unassigned) [Example 371] | < 50 nM
CCC(CC(=O)O)c1ccc(N2C[C@@H]3C[C@H]2CN3C(=O)OC(C)(C)C)c(Nc2ccc(C#N)cc2)c1 (single isomer, unassigned) [Example 443 Diastereomer 2] | < 50 nM
CCOc1ncc(Nc2cc([C@H](CC)CNS(=O)(=O)c3c(C)noc3C)ccc2N(CC)C2CCOCC2)cn1 [Example 1328, (S)-N-(2-(3-((2-ethoxypyrimidin-5-yl)amino)-4-(ethyl(tetrahydro-2H-pyran-4-yl)amino)phenyl)butyl)-3,5-dimethylisoxazole-4-sulfonamide] | > 50 nM
CCc1ncc(Nc2cc([C@H](CC)CC(=O)O)ccc2N(CC)C2CCOCC2)cn1 (single isomer, unassigned) [Example 1364] | < 5 nM
CCOc1ncc(Nc2cc([C@H](CC)CC#N)ccc2N(CC)C2CCOCC2)cn1 [Example 1333, (R)-3-(3-((2-Ethoxypyrimidin-5-yl)amino)-4-(ethyl(tetrahydro-2H-pyran-4-yl)amino)phenyl)pentanenitrile] | > 50 nM

More lines, now with the values ahead:

IC50 | SMILES
< 5 nM | CC(C)CN(CC(C)C)c1ccc(C(C)(C)CC(=O)O)cc1Nc1ccc(Cl)cc1 [Example 145, 3-(3-((4-Chlorophenyl)amino)-4-(diisobutylamino)phenyl)-3-methylbutanoic acid]
< 5 nM | COCC(CC(=O)O)c1ccc(N(C)C2CCOCC2)c(Nc2ccc(C#N)cn2)c1 (single isomer, unassigned) [Example 874, 3-(3-((5-cyanopyridin-2-yl)amino)-4-(methyl (tetrahydro-2H-pyran-4-yl)amino)phenyl)-4-methoxybutanoic acid]
< 5 nM | CCC(CC(=O)O)c1ccc(N(CC)C2CCOC2)c(NC(=O)Nc2ccc(Cl)cc2F)c1 (single isomer, unassigned) [Example 946 D2, 3-(3-(3-(4-Chloro-2-fluorophenyl)ureido)-4-(ethyl(tetrahydrofuran-3-yl)amino)phenyl)pentanoic acid]
< 5 nM | CC[C@@H](CC(=O)O)c1ccc(N(CC2CC2)CC(C)(C)O)c(Nc2ccc(Cl)cc2)c1 (single isomer, unassigned) [Example 267]
< 5 nM | CCOc1ccc(Nc2cc([C@@H](CC)CC(=O)O)ccc2N(CC)C2CCOCC2)cn1 (single isomer, unassigned) [Example 466]
< 5 nM | CC[C@@H](CC(=O)O)c1ccc(N(CC)C2CCOCC2)c(Nc2cnc(C)nc2)c1 (single isomer, unassigned) [Example 1361]
< 5 nM | CCN(c1cc(F)c([C@H](COC)CC(=O)O)cc1Nc1ccc(C#N)cc1)C1CCOCC1 (single isomer, unassigned) [Example 850, 3-(5-((4-Cyanophenyl)amino)-4-(ethyl(tetrahydro-2H-pyran-4-yl)amino)-2-fluorophenyl)-4-methoxybutanoic acid]
< 5 nM | CCN(c1ccc([C@@H](COC)CC(=O)O)cc1Nc1ccc(C(F)(F)F)cc1)C1CCOCC1 (single isomer, unassigned) [Example 364]
< 5 nM | CCCN(c1ccc([C@H](CC)CC(=O)O)cc1Nc1ccc(F)cc1)C1CCOCC1 (single isomer, unassigned) [Example 549]
< 5 nM | CCC(CC(=O)O)c1cnc(N(CC)C2CCOCC2)c(Nc2ccc(C#N)cc2)c1 (racemic) [Example 1379]
< 5 nM | CCN(c1ccc([C@@H](CC(=O)O)C(F)(F)F)cc1Nc1cnc(OC)nc1)C1CCOCC1 (single isomer, unassigned) [Example 601]
< 5 nM | CCN(c1ccc(C(C)CC(=O)O)cc1Nc1ccc2c(c1)OC(F)(F)O2)C1CCOCC1 (single isomer, unassigned) [Example 628, 3-(3-((2,2-difluorobenzo[d] [1,3]dioxol-5-yl)amino)-4-(ethyl(tetrahydro-2H-pyran-4-yl)amino)phenyl)butanoic acid]
< 5 nM | CCOc1ncc(Nc2cc(C(CC)CC(=O)O)ccc2N2CCC(c3ccccc3)CC2)cn1 (single isomer, unassigned) [Example 47 Enantiomer 1, 3-(3-((2-Ethoxypyrimidin-5-yl)amino)-4-(4-phenylpiperidin-1-yl)phenyl)pentanoic acid]
